According to publication PMC7160362, “A Polyamine-Based Dinitro-Naphthalimide Conjugate as Substrates for Polyamine Transporters Preferentially Accumulates in Cancer Cells and Minimizes Side Effects in vitro and in vivo” (Frontiers in Chemistry, 2020):
Read-outs that look alike come from different tables or passages of the source.

Tests used:
[1] = test system: MCF-7 cells (breast carcinoma); test: MTT cytotoxicity assay; assay type: cell-based; settings: MTT, 48 h
Experimental: (§1) We incubated hepatic carcinoma (Snu-368 and Snu-739), breast carcinoma (MDA-MB-231 and MCF-7), cisplatin-sensitive lung cancer cells A549, and cisplatin-resistant lung cancer cells A549cisR in 96-well plates in a 5% CO2 atmosphere at 37°C for 24 h (5,000 cells/well). After adding drugs in freshly prepared culture medium (100 μl) and incubating for another 48 h, we added 20 μl MTT (5 mg/ml) and incubated for another 3 h. At last, after the medium was removed, 150 μl DMSO was added. By using a Bio-Rad 680 microplate reader, the absorbance was measured at 570 nm and the IC50 values were calculated using the GraphPad Prism software based on three parallel experiments.
(§2) In vitro assays were firstly conducted to evaluate the inhibitory effect of polyamine-based naphthalimide conjugates 5a-5c, 7a-7b, and 11a-11b on six cancer cell lines, namely, Snu-368 and Sun-739 (hepatoma cell line), MCF-7 (breast carcinoma), MDA-MB-231 (triple negative breast cancer), cisplatin-sensitive lung cancer A549, and resistant A549cisR cells by using traditional MTT tests. Two classic antitumor agents in clinic trials, amonafide and cisplatin, were chosen as the reference drugs (Table 1). The preliminary structure–activity relationship (SAR) can be obtained from the in vitro biological results.

[2] = test system: MDA-MB-231 cells (triple negative breast cancer); test: MTT cytotoxicity assay; assay type: cell-based; settings: MTT, 48 h
Experimental: as §1, §2

[3] = test system: Snu-368 cells (hepatic carcinoma); test: MTT cytotoxicity assay; assay type: cell-based; settings: MTT, 48 h
Experimental: as §1, §2

[4] = test system: Snu-739 cells (hepatic carcinoma); test: MTT cytotoxicity assay; assay type: cell-based; settings: MTT, 48 h
Experimental: as §1, §2

[5] = test system: cisplatin-resistant lung cancer cells A549cisR; test: MTT cytotoxicity assay; assay type: cell-based; settings: for IC50: MTT, 48 h; for RF (resistance factor): IC50 in A549cisR cells/IC50 in A549 cells
Experimental: as §1, §2

[6] = test system: cisplatin-sensitive lung cancer cells A549; test: MTT cytotoxicity assay; assay type: cell-based; settings: MTT, 48 h
Experimental: as §1, §2

[7] = test system: HL-7702 (normal liver cell); test: MTT cytotoxicity on matched normal cells; assay type: cell-based; settings: for SI (selectivity index), range over Snu-368 and Snu-739: HL-7702 versus Snu-368 and Snu-739; for IC50: normal liver cell, read-out: IC50 HL-7702
Experimental: as §1
The selectivity for cancer cells over normal healthy cells is important for ideal anticancer agents, thereby mitigating undesired toxic side effects associated with chemotherapy. The selectivity of polyamine-based dinitro-naphthalimide conjugates 5a-5c was evaluated by Snu-368 and Snu-739 (hepatic carcinoma), and the matched normal cells HL-7702 (normal liver cell). Moreover, dinitro-naphthalimide conjugates 5a-5c (SI 1.94–7.47) show lower cytotoxicity in normal cells.

HCC xenografts = test: In vivo antitumor assay, HCC xenografts; settings: 5 mg/kg, tail vein, once every day for 7 days
From the text: Healthy BALB/c mice (Cat. SCXK 2016-0006, Beijing, China) aged 5 weeks were used for the determination of anticancer activity. We obtained BALB/c mice from the Laboratory Animal Center, Academy of Military Medical Science. They were raised in compliance with the Guide for the Care and Use of Laboratory Animals. The weight of healthy BALB/c mice is 18–22 g.
We firstly injected HCC cells with 1 × 10^6 cells per mouse to determine the anticancer activity. After a week, the tumors increased to 80–120 mm^3. The mice were divided into four groups for 5c (3 mg/kg), 5c (5 mg/kg), the positive control amonafide (5 mg/kg), or the negative control physiological saline. We injected 5c or amonafide via the tail vein every day for a total of seven treatments. Body weight was determined every day. And then the mice were sacrificed after 7 days. The tumor tissues were weighed and the inhibition rate [((average tumor weight of negative control group – average tumor weight of the drug treated or positive control group)/average tumor weight of control group) × 100] was calculated. The organ index [(organ weight/body weight) × 100%] was also counted including heart, liver, kidney, lung, and spleen at the last day. Both 5c and amonafide were dissolved in glucose injection. And they were used immediately after preparation.
The highest FI levels in Snu-739 also indicate a significant therapy for HCC. Therefore, HCC animal models were used to test the in vivo antitumor activities. Mice bearing HCC xenografts were treated with 5c (3 mg/kg), 5c (5 mg/kg), the positive control amonafide (5 mg/kg), and normal saline (negative control) once every day for 7 days by tail vein (Figure 3).

`NCCCCNCCCCN1C(=O)c2cc(N)cc3cc(N)cc(c23)C1=O` [7b] was tested, and the IC50 ([1]; Homo sapiens, MCF7) was over 30 µM, the IC50 ([2]; Homo sapiens, MDA-MB-231) was over 30 µM and the IC50 [3] was over 30 µM. It also gave an IC50 ([4]; SNU-739) of over 30 µM, an IC50 [5] of 17.3 ± 1.78 µM and an IC50 ([6]; Homo sapiens, A549) of over 30 µM.
`NCCCNCCCNCCCN1C(=O)c2cc(N)cc3cc(N)cc(c23)C1=O` [11a] showed an IC50 ([1]; Homo sapiens, MCF7) of 14.8 ± 1.45 µM, an IC50 ([2]; Homo sapiens, MDA-MB-231) of 26 ± 2.56 µM and an IC50 [3] of over 50 µM. For the same compound, the IC50 ([4]; SNU-739) was 9.69 ± 0.98 µM, the IC50 [5] was 16.3 ± 1.69 µM and the IC50 ([6]; Homo sapiens, A549) was 28.3 ± 2.85 µM.
Work on `NCCCNCCCCNCCCN1C(=O)c2cc(N)cc3cc(N)cc(c23)C1=O` [11b] yielded an IC50 ([1]; Homo sapiens, MCF7) of 25.9 ± 2.56 µM, an IC50 ([2]; Homo sapiens, MDA-MB-231) of over 30 µM and an IC50 [3] of over 30 µM. For the same compound, the IC50 ([4]; SNU-739) was 23.2 ± 2.36 µM, the IC50 [5] was 15.8 ± 1.58 µM and the IC50 ([6]; Homo sapiens, A549) was over 30 µM.
In the case of `CN(C)CCN1C(=O)c2cccc3cc(N)cc(c23)C1=O` [Amonafide, amonafide, reference compound], the IC50 ([1]; Homo sapiens, MCF7) is reported as 5.89 ± 0.56 µM, the IC50 ([2]; Homo sapiens, MDA-MB-231) is reported as 14.9 ± 1.75 µM and the IC50 [3] is reported as 14 ± 1.78 µM. For the same compound, the IC50 ([4]; SNU-739) was 13 ± 1.56 µM, the “RF (resistance factor)” value [5] was 1.59 and the IC50 [5] was 11 ± 1.02 µM. The IC50 ([6]; Homo sapiens, A549) was 6.89 ± 0.68 µM, the “SI (selectivity index) IC50 in HL-7702/IC50 in Snu-368” value [7] was 0.83 and the “SI (selectivity index) IC50 in HL-7702/IC50 in Snu-739” value [7] was 0.89. The “SI (selectivity index), range over Snu-368 and Snu-739” value [7] was 0.83–0.89, the IC50 ([7]; Homo sapiens, L02) was 11.6 ± 1.36 µM and the “tumor suppression (inhibition rate, tumor weight)” value (HCC xenografts) was 53.27%.
`N.N.[Cl][Pt][Cl]` [Cisplatin, cisplatin, reference compound] was tested, and the IC50 [1] was 9.6 ± 0.6 µM, the IC50 [2] was 16 ± 1.59 µM and the IC50 [3] was 16.4 ± 1.26 µM. For the same compound, the IC50 [4] was 10 ± 1.23 µM, the “RF (resistance factor)” value [5] was 3.67 and the IC50 [5] was 40.4 ± 4.36 µM. For the same compound, the IC50 [6] was 11 ± 0.15 µM, the “SI (selectivity index) IC50 in HL-7702/IC50 in Snu-368” value [7] was 0.53 and the “SI (selectivity index) IC50 in HL-7702/IC50 in Snu-739” value [7] was 0.86. For the same compound, the “SI (selectivity index), range over Snu-368 and Snu-739” value [7] was 0.53–0.86 and the IC50 [7] was 8.6 ± 0.2 µM.
